Assay results reported in US7977481B2, “Pyrimidinyl-thiophene kinase modulators” (SGX Pharmaceuticals, Inc., priority 2005, dated 2011).

test system: HCT116 cells; test: 96-well XTT cell survival assay (AurA XTT); type: cell-based; details: Homo sapiens, HCT-116, 72 hours
Procedure: HCT116 cells were maintained in McCoy's 5a Medium supplemented with 10% fetal bovine serum (FBS) 2 mM L-Glutamine and 100 units penicillin/100 μg streptomycin, at 37° C. in 5% CO2
Compounds were tested in the following assays in duplicate.
96-well XTT assay: Cells were grown in growth media containing various concentrations of compounds (duplicates) on a 96-well flat bottom plate for 72 hours at 37° C. in 5% CO2. The starting cell number was 5000 cells per well and volume was 120 μl. At the end of the 72-hour incubation, 40 μl of XTT labeling mixture (50:1 solution of sodium 3′-[1-(phenylaminocarbonyl)-3,4-tetrazolium]-bis(4-methoxy-6-nitro) benzene sulfonic acid hydrate and Electron-coupling reagent: PMS (N-methyl dibenzopyrazine methyl sulfate) were added to each well of the plate. After an additional 2-6 hours […] with a spectrophotometer.

SMILES | IC50 [nM]
CCN(CCC#N)C(=O)c1ccc(-c2ccnc(Nc3ccncc3)n2)s1 | 1000 to 5000

biological target: T1, Autophosphorylated AurA kinase (Homo sapiens, UniProt O14965); test: AurA Luminescence-Based ATP Depletion Enzyme Assay; type: biochemical; details: 10 μM ATP
T1 construct: made in house; host or cells: Sf9 insect cells
T1 sequence (O14965 1-403): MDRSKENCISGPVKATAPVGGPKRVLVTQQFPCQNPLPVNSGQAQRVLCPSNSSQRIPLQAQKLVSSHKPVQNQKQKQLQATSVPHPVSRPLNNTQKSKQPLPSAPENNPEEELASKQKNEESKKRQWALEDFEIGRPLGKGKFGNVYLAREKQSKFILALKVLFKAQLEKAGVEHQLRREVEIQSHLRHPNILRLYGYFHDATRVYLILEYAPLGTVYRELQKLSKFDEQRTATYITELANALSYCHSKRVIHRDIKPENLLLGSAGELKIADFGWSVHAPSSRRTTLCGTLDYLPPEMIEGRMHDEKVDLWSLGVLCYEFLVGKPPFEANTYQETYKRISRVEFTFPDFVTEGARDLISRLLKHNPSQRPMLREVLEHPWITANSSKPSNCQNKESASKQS
Procedure: AurA Luminescence-Based ATP Depletion Enzyme Assay
Materials: Kemptide peptide substrate=LRRASLG (Biopeptide, San Diego, Calif.), ATP (Sigma Cat#A-3377, FW=551), HEPES buffer, pH 7.5, 10% Brij 35 (Calbiochem Cat#203728), MgCl2, Staurosporine (Streptomyces sp. Sigma Cat#85660-1MG), white Costar 384-well flat-bottom plate (VWR Cat#29444-088), Autophosphorylated AurA kinase (see below), Kinase-Glo™ (Promega Cat#V6712).
Stock Solutions: 10 mM Kemptide peptide (7.72 mg/ml in water), stored at −20° C.; 100 mM HEPES buffer+0.015% Brij 35, pH 7.5 (5 ml 1M HEPES stock+75 μL 10% Brij 35+45 ml miliQH2O); 10 mM ATP (5.51 mg/ml in dH2O) stored at −20° C. (diluted 50 μl into total of 10 ml miliQH2O daily=50 μM ATP working stock); 100 mM MgCl2; 200 μM Staurosporine, 2× Kinase-Glo™ reagent (made fresh or stored at −20° C.).
AurA Autophosphorylation Reaction: ATP and MgCl2 were added to 1-5 mg/ml AurA at final concentrations of 10 mM and 100 mM, respectively. The autophosphorylation reaction was incubated at 21° C. for 2-3 h. The reaction was stopped by the addition of EDTA to a final concentration of 50 mM, and samples were flash frozen with liquid N2 and stored at −80° C.
Standard Assay Setup for 384-well format (20 μl kinase reaction, 40 μl detection reaction): 10 mM MgCl2; 0.2 mM Kemptide peptide; 1 μl test compound (in DMSO); 0.3 μg/ml Autophosphorylated AurA kinase; 10 μM ATP; 100 mM HEPES+0.015% Brij buffer. Positive controls contained DMSO with no test compound. Negative controls contained 5 μM staurosporine. The kinase reactions were initiated at time t=0 by the addition of ATP. Kinase reactions were incubated at 21° C. for 45 min, then 20 μl of Kinase-Glo™ reagent were added to each well to quench the kinase reaction and initiate the luminescence reaction. After a 20 min incubation at 21° C., the luminescence was detected in a plate-reading luminometer.
The Sf9 insect cell pellets (˜18 g) produced from 6 L of cultured cells expressing human Aurora-2 were resuspended in 50 mM Na Phosphate pH 8.0, 500 mM NaCl, 10% glycerol, 0.2% n-octyl-β-D-glucopyranoside (BOG) and 3 mM β-Mercaptoethanol (BME). One tablet of Roche Complete, EDTA-free protease inhibitor cocktail (Cat#1873580) and 85 units Benzonase (Novagen Cat#70746-3)) were added per 1 L of original culture. Pellets were resuspended in approximately 50 ml per 1 L of original culture and were then sonicated on ice with two 30-45 sec bursts (100% duty cycle). Debris was removed by centrifugation and the supernatant was passed through a 0.8 μm syringe filter before being loaded onto a 5 ml Ni^2+ HiTrap column (Pharmacia). The column was washed with 6 column volumes of 50 mM Na Phosphate pH 8.0, 500 mM NaCl, 10% glycerol, 3 mM BME. The protein was eluted using a linear gradient of the same buffer containing 500 mM Imidazole. The eluant (24 ml) was cleaved overnight at 4° C. in a buffer containing 50 mM Na Phosphate pH 8.0, 500 mM NaCl, 10% glycerol, 3 mM BME and 10,000 units of TEV (Invitrogen Cat#10127-017). The protein was passed over a second nickel affinity column as described above; the flow-through was collected. The cleaved protein fractions were combined and concentrated using spin concentrators. Further purification was done by gel filtration chromatography on a S75 sizing column in 50 mM Na Phosphate (pH 8.0), 250 mM NaCl, 1 mM EDTA, 0.1 mM AMP-PNP or ATP buffer, and 5 mM DTT. The cleanest fractions were combined and concentrated to approximately 8-11 mg/ml, and were either flash frozen in liquid nitrogen in 120 μl aliquots and stored at −80° C., or stored at 4° C.

SMILES | IC50 [nM]
CC(O)c1cccc(Nc2nccc(-c3ccc(CNC(=O)c4ccccc4)s3)n2)c1 (stereo not shown) | 100 to 500
Cc1noc(C)c1-c1ccc(-c2ccnc(Nc3cccc(C(C)O)c3)n2)s1 (stereo not shown) | 100 to 500
NC(=O)c1cccc(Nc2nccc(-c3ccc(Br)s3)n2)c1 | 100 to 500
CCN(CCC#N)C(=O)c1ccc(-c2ccnc(Nc3ccncc3)n2)s1 | > 500

More lines, now with the values ahead:

IC50 [nM] | SMILES
< 100 | O=S(=O)(Nc1ncc[nH]1)c1ccc(Nc2nccc(-c3ccc(S(=O)(=O)N4CCCCC4)s3)n2)cc1
< 100 | CC(O)c1cccc(Nc2nccc(-c3cc(C(=O)NCc4ccccc4)cs3)n2)c1 (stereo not shown)
